Data: BigSolDB 2.1

## CO/N=C(/C(=O)N[C@@H]1C(=O)N2C(C(=O)O)=C(COC(N)=O)CS[C@H]12)c1ccco1
In acetone, 278.5 K
  solubility (mole fraction): 0.00362
In acetone, 283.4 K
  solubility (mole fraction): 0.0036
In acetone, 288.3 K
  solubility (mole fraction): 0.00355
In acetone, 293.3 K
  solubility (mole fraction): 0.00342
In acetone, 298.3 K
  solubility (mole fraction): 0.00337
In acetone, 303.5 K
  solubility (mole fraction): 0.00331
In acetone, 308.3 K
  solubility (mole fraction): 0.00327
In acetone, 313.4 K
  solubility (mole fraction): 0.00324
In ethanol, 278.5 K
  solubility (mole fraction): 0.00019
In ethanol, 283.4 K
  solubility (mole fraction): 0.00022
In ethanol, 288.3 K
  solubility (mole fraction): 0.00028
In ethanol, 293.3 K
  solubility (mole fraction): 0.00032
In ethanol, 298.3 K
  solubility (mole fraction): 0.00037
In ethanol, 303.5 K
  solubility (mole fraction): 0.00052
In ethanol, 308.3 K
  solubility (mole fraction): 0.00056
In ethanol, 313.4 K
  solubility (mole fraction): 0.00061
In isopropanol, 278.5 K
  solubility (mole fraction): 6e-05
In isopropanol, 283.4 K
  solubility (mole fraction): 9e-05
In isopropanol, 288.3 K
  solubility (mole fraction): 0.00011
In isopropanol, 293.3 K
  solubility (mole fraction): 0.00012
In isopropanol, 298.3 K
  solubility (mole fraction): 0.00012
In isopropanol, 303.5 K
  solubility (mole fraction): 0.00015
In isopropanol, 308.3 K
  solubility (mole fraction): 0.00027
In isopropanol, 313.4 K
  solubility (mole fraction): 0.00032
In water, 278.5 K
  solubility (mole fraction): 3e-05
In water, 283.4 K
  solubility (mole fraction): 4e-05
In water, 288.3 K
  solubility (mole fraction): 4e-05
In water, 293.3 K
  solubility (mole fraction): 6e-05
In water, 298.3 K
  solubility (mole fraction): 7e-05
In water, 303.5 K
  solubility (mole fraction): 0.00012
In water, 308.3 K
  solubility (mole fraction): 0.00022
In water, 313.4 K
  solubility (mole fraction): 0.00026
